Substitutions are numbered along the chain they refer to. Where only a bound is given, the exact number is not on record here.

The target in series [1] is T1, hAR (Homo sapiens, UniProt P10275).
T1 sequence (P10275 1-920): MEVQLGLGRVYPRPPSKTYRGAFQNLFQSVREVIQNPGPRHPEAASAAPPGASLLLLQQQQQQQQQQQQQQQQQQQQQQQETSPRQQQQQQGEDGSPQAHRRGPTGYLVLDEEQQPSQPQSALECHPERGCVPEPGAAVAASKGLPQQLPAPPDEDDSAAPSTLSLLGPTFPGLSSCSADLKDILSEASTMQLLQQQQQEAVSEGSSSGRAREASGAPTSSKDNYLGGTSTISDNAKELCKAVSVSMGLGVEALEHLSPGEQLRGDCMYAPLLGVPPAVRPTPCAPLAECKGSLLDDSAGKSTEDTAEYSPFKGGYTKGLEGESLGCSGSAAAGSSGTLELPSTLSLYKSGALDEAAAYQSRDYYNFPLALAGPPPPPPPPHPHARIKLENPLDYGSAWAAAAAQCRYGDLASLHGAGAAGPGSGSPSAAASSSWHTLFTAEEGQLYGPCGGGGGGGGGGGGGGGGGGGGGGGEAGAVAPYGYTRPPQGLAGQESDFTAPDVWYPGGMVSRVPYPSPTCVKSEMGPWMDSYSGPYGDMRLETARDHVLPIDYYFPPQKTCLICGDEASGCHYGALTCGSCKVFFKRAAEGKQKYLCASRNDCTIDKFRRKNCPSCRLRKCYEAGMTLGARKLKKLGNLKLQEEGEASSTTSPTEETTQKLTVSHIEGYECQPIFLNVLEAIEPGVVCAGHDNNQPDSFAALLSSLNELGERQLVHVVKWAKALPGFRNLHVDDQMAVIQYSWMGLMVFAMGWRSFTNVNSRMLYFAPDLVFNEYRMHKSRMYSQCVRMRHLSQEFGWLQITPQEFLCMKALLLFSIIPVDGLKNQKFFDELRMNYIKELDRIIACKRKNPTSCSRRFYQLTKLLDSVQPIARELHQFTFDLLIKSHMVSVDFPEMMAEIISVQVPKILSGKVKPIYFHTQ
Put plainly: Competitive binding of 3H-DHT to baculovirus/Sf9 generated hAR extracts. To be noted: IC50, concentration at which one half of maximum binding of 1 nM 3H-DHT to hAR is inhibited; one hour at 4° C.; mean of multiple tests. The gist of the method:
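Baculovirus/Sf9-expressed hAR extract incubated with test compound, hydroxylapatite and 1 nM 3H-DHT tracer for 1 h at 4° C, then washed free of unbound tracer. Affinity given as concentration inhibiting half of maximal 3H-DHT binding.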

Series [2] addresses T2, androgen receptor (Homo sapiens, UniProt P10275).
T2 sequence (P10275 1-920 Q868H): T1 sequence (P10275 1-920) with Q868H
Put plainly: AR Antagonist Cell Assay (MDA-MB453-MMTV clone 54-19, luciferase reporter). The class given is cell-based. The settings on record: inhibition of induction by DHT (final concentration at 100 μM), 17 hr; compound 0.32-1000 nM; mean of multiple tests. Summed up: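 MDA-MB453 breast tumour cells stably carrying an ARE-containing MMTV promoter driving firefly luciferase, plated overnight at 37° C in charcoal-treated serum medium. DHT added (final […]) and incubated 17 hr at 37° C. Luminescence read after adding luciferase buffer; values are means of multiple tests.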
On the technique in general: In a reporter assay the amount or activity of a reporter protein is the signal.

Series [3] has as its system spinal BMD. To be noted: after 7 years of treatment; cited from earlier work.

`CC(c1cccc(O)c1)N1CC(C)(C)C(Oc2ccc(C#N)c(C(F)(F)F)c2)C1=O` (single isomer, unassigned; (+)) [Example 24, (+)-4-{1-[1-(3-Hydroxy-phenyl)-ethyl]-4,4-dimethyl-2-oxo-pyrrolidin-3-yloxy}-2-trifluoromethyl-benzonitrile]: the melting point (as a rule, the temperature, or range, at which the solid turns liquid) was 185.1 to 185.8 °C. Besides, the IC50 (as a rule, the concentration that inhibits the measured activity by half) in series [1] was found to be 10 nM. Besides, in series [2], half-maximal inhibition (IC50) was put at 33 nM.

Take `C[C@@H](c1ccc(F)cc1)N1CC(C)(C)[C@@H](Oc2ccc(C#N)c(C(F)(F)F)c2)C1=O` (racemic) [Example 70, (±)-4-{1-[1-(4-Fluoro-phenyl)-ethyl]-4,4-dimethyl-2-oxo-pyrrolidin-3-yloxy}-2-trifluoromethyl-benzonitrile]: the melting point was in the range of 82 to 83 °C. Also, the concentration for half-maximal inhibition (IC50) in series [1] was found to be 52 nM. The concentration for half-maximal inhibition (IC50) in series [2] is 85 nM.

As for `NCCCC(O)(P(=O)(O)O)P(=O)(O)O` [alendronate], the “increase in spinal BMD” value in series [3] is at most 11%.

`CSc1ccc(CN2CC(C)(C)C(Oc3ccc(C#N)c(C(F)(F)F)c3)C2=O)cc1` (racemic) [Example 22, (±)-4-[4,4-Dimethyl-1-(4-methylsulfanyl-benzyl)-2-oxo-pyrrolidin-3-yloxy]-2-trifluoromethyl-benzonitrile] returned a melting point of 44.1 to 44.8 °C. Further, in series [1], the IC50 came out at 40 nM. It took 99 nM to reach half-maximal inhibition in series [2] (IC50).

(Values after patent US7674819B2 (Warner-Lambert Company LLC, priority 2005, dated 2010).)
